Results as given in ChEMBL document CHEMBL4020772, “Alkaloids from aerial parts of Houttuynia cordata and their anti-inflammatory activity” (Bioorg Med Chem Lett, 2017).

Test system: RAW264.7
Test: Antiinflammatory activity in mouse RAW264.7 cells assessed as reduction in LPS-induced NO production pretreated for 30 mins followed by LPS stimulation for 24 hrs by Griess assay
Format: functional, cell-based

SMILES | IC50 [µM]
O=c1ccc2ccccc2[nH]1 | > 10
O=C(O)c1c[nH]c2ccccc12 | > 10
COc1cc2c(cc1O)CC1c3c(cc(OC)c(OC)c3-2)CCN1C (configuration not stated) | > 10
COc1c(O)cc2c3c1-c1ccccc1CC3N(C)CC2 (configuration not stated) | > 10
COc1cc(CC2c3cc(O)c(OC)cc3CCN2C)ccc1O (configuration not stated) | > 10
COc1c(O)cc2c3c1-c1ccccc1CC3NCC2 (configuration not stated) | > 10
COc1cc2c(cc1O)CC1c3c(cc(OC)c(O)c3-2)CCN1C (configuration not stated) | > 10
COc1cc2c(cc1O)CC1NCCc3cc(OC)c(OC)c-2c31 (configuration not stated) | > 10
COc1cc2c(cc1O)CC1NCCc3cc(OC)c(O)c-2c31 (configuration not stated) | > 10
NC(=O)c1cccnc1 [NIACINAMIDE] | > 10
COc1c(O)cc2c3c(cc4ccccc4c13)NC(=O)C2=O [NORARISTOLODIONE] | > 10
COc1cc2c3c(c1OC)-c1ccccc1CC3NCC2 (configuration not stated) [NORNUCIFERINE] | > 10

The remaining lines, values ahead:

IC50 [µM] | SMILES
> 10 | C[S+]([O-])C[C@H]1O[C@@H](n2cnc3c(N)ncnc32)[C@H](O)[C@@H]1O (some centres not stated)
> 10 | COCc1ccc(C=O)n1CCCC(=O)O
> 10 | O=C(NC[C@@H](O[C@@H]1O[C@H](CO)[C@@H](O)[C@H](O)[C@H]1O)c1ccccc1)c1ccccc1
> 10 | O=C(NC[C@@H](O)c1ccccc1)c1ccc(O)cc1
> 10 | O[C@]12CO[C@@H](Cc3nccc4c3[nH]c3ccccc34)[C@H]1O2
> 10 | O=C(NC[C@@H](O[C@@H]1O[C@H](CO)[C@@H](O)[C@H](O)[C@H]1O)c1ccccc1)c1cccc(O)c1
> 10 | Nc1ncnc2c1ncn2[C@@H]1O[C@H](CO)[C@@H](O)[C@H]1O [ADENOSINE]
7 | C[C@@H]1C[C@H]2[C@@H]3CCC4=CC(=O)C=C[C@]4(C)[C@@]3(F)[C@@H](O)C[C@]2(C)[C@@]1(O)C(=O)CO [DEXAMETHASONE]
8.7 | OCc1ccc(-c2nccc3c2[nH]c2ccccc23)o1 [PERLOLYRIN]
> 10 | O=c1ccn([C@@H]2O[C@H](CO)[C@@H](O)[C@H]2O)c(=O)[nH]1 [URIDINE]
